Data set [1] deals with panel of experts in the sensory evaluation of foods and beverages. The experiment in a line: Sensory evaluation of sweetness linger and sugar-like taste by expert panel. The format is in vivo, human. Details: key: 0=no sweetness linger; 1=very slight sweetness linger; 2=slight sweetness linger; 3=moderate sweetness linger; 4=moderately high sweetness linger; 5=high sweetness linger. Particulars: for Sweetness Linger rating defined by protocol: scale anchors: sucrose, 500 ppm of REBA control sample. How it is done:
Sensory evaluation of the samples prepared in Example Set G was carried out under the following protocol, similar to that described hereinabove. In this test protocol, none of the samples were swallowed. All samples were expectorated and the mouth was rinsed with water after the tasting. Immediately upon sensing maximal sweetness, the sample was expectorated, the mouth was rinsed with water and the rate of sweetness decay (“Sweetness Linger”) was measured, where attention was focused on the sweetness 3-4 min after the water rinse. After sample tasting was complete, a salty oyster cracker was chewed followed by a water rinse, and at least 5 minutes followed before tasting the next sample. The sweetness linger was rated by a panel of experts in the sensory evaluation of foods and beverages using the following scale: 0=no sweetness linger, 1=very slight sweetness linger, 2=slight sweetness linger, 3=moderate sweetness linger, 4=moderately high sweetness linger, 5=high sweetness linger.
The “Sweetness Linger” rating for sucrose observed by this protocol is defined as 0. The Sweetness Linger of a 500 ppm of REBA control sample is defined as 5. Experimental samples were tasted by the same protocol, always allowing sufficient time between samples to ensure re-equilibration of the sensory system. Re-tasting of control samples during the course of the experiment was allowed and encouraged.
The comparison taste test was performed between two controls and addition of sweet taste improving additive on the onset and/or sweetness linger.
Sweet taste improving compositions were combined with a REBA solution to determine their effect on sweetness linger. Screening of the initial sample, or further dilutions, allowed identification of concentrations which were just above-threshold, herein defined as “near-threshold concentrations.” The near-threshold additive concentrations, a 6- to 100-fold higher additive concentration (depending on the off-taste intensity), and a mid-level additive concentration (halfway between the near-threshold and higher additive concentration) were evaluated to determine the effect on sweetness linger of a REBA solution. […]
Sensory evaluation using the protocol described in Example Set G then was used to evaluate the sweetness linger of the REBA solutions.

Data set [2] is described as follows: Sweetness level as sucrose equivalent.
Data set [3] can be described thus: Moisture content of rebaudioside A polymorphs. The data set is classed as physicochemical. From the text:
(§1) The purification of rebaudioside A by crystallization as described above results in the formation of at least four different polymorphs: Form 1: a rebaudioside A hydrate; Form 2: an anhydrous rebaudioside A; Form 3: a rebaudioside A solvate; and Form 4: an amorphous rebaudioside A. The aqueous organic solution and temperature of the purification process influence the resulting polymorphs in the substantially pure rebaudioside A composition. FIGS. 1-5 are exemplary powder x-ray diffraction (XRPD) scans of polymorphs Form I (hydrate), Form 2 (anhydrate), Form 3A (methanol solvate), Form 3B (ethanol solvate), and Form 4 (amorphous), respectively.

Data set [4] can be described thus: Alcohol content of rebaudioside A polymorphs. The data set is classed as physicochemical.
Source text: as §1

Data set [5] in a line: Rate of dissolution of rebaudioside A polymorphs in H2O at 25° C. The data set is classed as physicochemical. The settings on record: result in words.
Source text: as §1

The format of data set [6] is physicochemical. Here is the method:
A solution of rebaudioside A (>97% pure by HPLC) was prepared in double distilled water (12.5 gm in 50 mL, 25% concentration) by stirring the mixture at 40° C. for 5 minutes. An amorphous rebaudioside A polymorph was formed by immediately using the clear solution for spray drying with the Lab-Plant spray drier SD-04 instrument (Lab-Plant Ltd., West Yorkshire, U.K.). The solution was fed through the feed pump into the nozzle atomizer which atomized it into a spray of droplets with the help of a constant flow of nitrogen/air. […] This dry powder (11-12 g, H2O 6.74%) was discharged continuously from the drying chamber and was collected in a bottle.

Bounds are passed on as bounds.

rebaudioside A: the sweetness linger rating in data set [1] (control: 400 ppm REBA in citric acid/potassium citrate composition, no additive) is on record as 5; in data set [1] (control: 500 ppm REBA in carbon-treated water, phosphoric acid (75%) pH 2.4-2.5), 5. The “Sweetness Linger rating defined by protocol” value in data set [1] stood at 5. Moreover, the entries for the “sucrose equivalence of sweetness” value in data set [2] (180 ppm rebaudioside A in 1:1 diluted beverage) and in data set [2] (400 ppm REBA in citric acid/potassium citrate composition) were 5 % sucrose and 8 g sucrose, respectively.

In turn, rebaudioside A [Form 2] came in with a Moisture content in data set [3] of under 1%. The same compound showed an Alcohol content in data set [4] of under 1%. Also, in data set [5], the “Rate of dissolution in H2O at 25° C.” value was “Intermediate”.

In data set [3], rebaudioside A [Form 3] had a Moisture content of under 3%. In addition, in data set [4], the Alcohol content is recorded as 1-3%. Moreover, the “Rate of dissolution in H2O at 25° C.” value in data set [5] is listed as “High”.

As for rebaudioside A [Form 1], in data set [3], the Moisture content was over 5%. The Alcohol content in data set [4] is reported as under 0.5%. Moreover, the “Rate of dissolution in H2O at 25° C.” value in data set [5] is “Very low”.

On to `OC[C@H]1O[C@@](CO)(O[C@H]2O[C@H](CO)[C@@H](O)[C@H](O)[C@H]2O)[C@@H](O)[C@@H]1O` [sugar, sucrose], for which, in data set [1], the “Sweetness Linger rating defined by protocol” value was 0.

rebaudioside A [Form 4] returned a Moisture content in data set [3] of 6.74%. Moreover, the “solubility in water at room temperature” value in data set [6] was over 35.0%. Moreover, in data set [5], the “Rate of dissolution in H2O at 25° C.” value is given as “High”.

Source of the values: patent publication US9173425B2, “High-potency sweetener composition with vitamin and compositions sweetened therewith” (THE COCA-COLA COMPANY, priority 2005, dated 2015).
